In patent US20260374817A1, “COMPOSITIONS COMPRISING TREM-1 INHIBITORS AND USES THEREOF” (INOTREM, priority 2023, published 2026):
“Also recorded” adds a separate entry of the source.

Columns and labels:
[1] = tested on: TREM-1 pathway; assay: ROS production by LPS-stimulated human primary neutrophils (DCFDA, flow cytometry, MFI); format: cell-based; settings: for decrease of LPS-induced ROS production: 100 ng/mL LPS, 2 hours, 37 °C, LR12 or LR12-dimer 10 and 50 μg/mL; for TREM-1 inhibiting property / biological activity: preclinical in vitro pharmacology model
Protocol: FIG. 1 is a graph showing the results from flow cytometric quantification (DCFDA reduction) of neutrophils ROS production after 2 hours stimulation with LPS, LPS+10 μg/mL LR12, LPS+50 μg/mL LR12, LPS+10 μg/mL LR12-dimer (dimer), LPS+50 μg/mL LR12-dimer (dimer). […]; **p<0.01 (T test).
Neutrophils produce reactive oxygen species (ROS) in presence of LPS (lipopolysaccharides) following activation of the TREM-1 pathway and are thus used in the present example in order to assess TREM-1 activation and the biological activity of the LR12 dimer on the TREM-1 pathway. ROS production induced by TREM-1 activation and its modulation by LR12 can be quantified by flow cytometry. Any decrease in ROS production by LR12 (LPS+LR12 conditions) translates into a decrease in mean fluorescence intensity (MFI) as compared to the ROS production observed following the TREM-1 activation in presence of LPS (LPS condition).
Primary human neutrophils were isolated from the peripheral blood of healthy donors by immunomagnetic negative cell sorting with EasySep™ Human Monocyte/Neutrophil Isolation Kits (StemCell, Canada) following the manufacturer's instructions. Purity was assessed by flow cytometry. Cells were suspended in RPMI 1640 medium containing GlutaMAX and supplemented with 10% FCS, 25 mM HEPES, 100 U/ml penicillin and streptomycin before stimulation. Human primary neutrophils were incubated in resting conditions (also referred to as control conditions or ctrl 2), or with 100 ng/mL LPS from E. coli serotype 0127: B8 (Sigma-Aldrich), with or without LR12 or LR12-dimer (dimer) at the indicated concentrations.
Upon cleavage of the acetate groups by intracellular esterases and oxidation, the nonfluorescent DCFDA is converted to the highly fluorescent 2′,7′-dichlorofluorescein (DCF). 2.5×10^5 isolated human neutrophils were incubated 2 hours at 37 °C-5% CO2 with 5 μM of DCFDA, with or without 100 ng/mL LPS, and with or without LR12 or LR12-dimer (dimer) at the indicated concentrations. Data were acquired using flow cytometry. Results are expressed as mean fluorescence intensity (MFI).

[2] = Solubility of LR12 in formulations / screening of solubility aids; format: physicochemical
Protocol: Briefly, to reduce the formation of disulfide bridges, the pH during the formulation process was reduced to below 6.0. However, LR12 contains 4 acidic, negatively charged amino acids, namely glutamate (Glu) and aspartate (Asp) and no basic amino acids.
To solve this problem, solubility aids were screened at pH 5.5 and 6.5.
The purified substance of LR12 peptide (of example 2) is formulated using the following excipients: 50 mM sodium citrate pH 5.5; 50 mM NaCl.
The purified substance of LR12 peptide (of example 2) is formulated using the following excipients: 50 mM sodium phosphate pH 6.5; 50 mM NaCl.
The purified substance of LR12 peptide (of example 2) is formulated using the following excipients: 50 mM sodium citrate pH 5.5; 200 mM mannitol.
The purified substance of LR12 peptide (of example 2) is formulated using the following excipients: 50 mM sodium citrate pH 5.5; 150 mM betaine.
The purified substance of LR12 peptide (of example 2) is formulated using the following excipients: 5 0 mM sodium citrate pH 5.5; 50 mM lysine; 50 mM NaCl.
The purified substance of LR12 peptide (of example 2) is formulated using the following excipients: 50 mM sodium citrate pH 5.5; 50 mM arginine.
The purified substance of LR12 peptide (of example 2) is formulated using the following excipients: 25 mM sodium citrate pH 5.5; 225 mM arginine; 65 mM HCl.
Formulations using incremental concentrations of the purified substance of LR12 peptide (of example 2) and incremental concentrations of the following excipients: Arginine 90 to 420 mM, using only HCl for pH adjustment to 5.5.

[3] = tested on: TREM-1 signaling; settings: Derive et al., 2012; cited from earlier work
[4] = tested on: adult minipig model of induced sepsis; settings: after induction of fecal peritonitis; Derive et al., 2013; cited from earlier work

SMILES	decrease of LPS-induced ROS production [1]	TREM-1 inhibiting property / biological activity [1]	TREM-1 inhibiting property / biological activity ([1]; listed as LR12-dimer)	solubility below pH 5.0 ([2]; below pH 5.0)	solubility with solubility aids (no improvement) ([2]; pH 5.5 and 6.5, Tween 20, mannitol, sucrose, trehalose, betaine, urea, glutathione, ammonium acetate, citrate)	solubility ([2]; screened at pH 5.5 and 6.5, only by adding lysine or arginine or histidine, read-out: solubility reached with positively charged solubility enhancing agents)	anti-inflammatory properties [3]	cardiovascular failure [4]	survival [4]
CSCC[C@H](NC(=O)[C@H](CSSC[C@H](NC(=O)CNC(=O)[C@H](Cc1ccc(O)cc1)NC(=O)[C@H](CCC(=O)O)NC(=O)CNC(=O)[C@H](C)NC(=O)[C@H](CC(=O)O)NC(=O)[C@H](CCC(=O)O)NC(=O)[C@H](CCC(=O)O)NC(=O)[C@H](CCC(N)=O)NC(=O)[C@@H](N)CC(C)C)C(=O)N[C@@H](CCSC)C(N)=O)NC(=O)CNC(=O)[C@H](Cc1ccc(O)cc1)NC(=O)[C@H](CCC(=O)O)NC(=O)CNC(=O)[C@H](C)NC(=O)[C@H](CC(=O)O)NC(=O)[C@H](CCC(=O)O)NC(=O)[C@H](CCC(=O)O)NC(=O)[C@H](CCC(N)=O)NC(=O)[C@@H](N)CC(C)C)C(N)=O [LR12 dimer]	not able to decrease the production of ROS by LPS-activated neutrophils	did not display any TREM-1 inhibiting property; also recorded: inactive in a preclinical in vitro pharmacology model; also recorded: biologically inactive	not able to induce any pharmacological inhibition of TREM-1						
CSCC[C@H](NC(=O)[C@H](CS)NC(=O)CNC(=O)[C@H](Cc1ccc(O)cc1)NC(=O)[C@H](CCC(=O)O)NC(=O)CNC(=O)[C@H](C)NC(=O)[C@H](CC(=O)O)NC(=O)[C@H](CCC(=O)O)NC(=O)[C@H](CCC(=O)O)NC(=O)[C@H](CCC(N)=O)NC(=O)[C@@H](N)CC(C)C)C(N)=O [LR12]	able to decrease in a dose-dependent manner the LPS-induced release of ROS			barely soluble below pH 5.0	failed to improve the solubility of LR12	40 mg/mL	exhibit anti-inflammatory properties by inhibiting TREM-1 signaling	reduced cardiovascular failure	improved survival
